This is an account of results in patent US8497294B2, “Compositions comprising (S)-2-amino-1-(4-chlorophenyl)-1-[4-(1H-pyrazol-4-yl)-phenyl]-ethanol as modulator of protein kinases” (Astex Therapeutics Limited, priority 2007, dated 2013).

One series deals with T1, PKA catalytic domain (Homo sapiens, UniProt P17612).
T1 construct: using the PKA catalytic domain from Upstate Biotechnology (#14-440); purchased Upstate Biotechnology 14-440
Briefly: PKA kinase inhibitory activity, radiometric assay. It is filed as biochemical. How it is done:
A final concentration of 1 nM enzyme is used in a buffer that includes 20 mM MOPS pH 7.2, 40 μM ATP/γ^33P-ATP and […] substrate. Compounds are added in dimethylsulphoxide (DMSO) solution to a final DMSO concentration of 2.5%. The reaction is allowed to proceed for 20 minutes before addition of excess orthophosphoric acid to quench activity. Unincorporated γ^33P-ATP is then separated from phosphorylated proteins on a Millipore MAPH filter plate. The plates are washed, scintillant is added and the plates are then subjected to counting on a Packard Topcount.

Series [1] deals with phosphorylation of GSK3β on serine 9 in U87MG cells. Briefly: Cell based phospho-Ser9 GSK3β ELISA (mechanistic cellular assay). The following applies: for activity in mechanistic cellular ELISA assay: result in words. How it is done:
The effect on inhibiting PKB in U87MG cells is determined by the ability of compounds to inhibit phosphorylation of the direct downstream substrate GSK3β on serine 9. Cells are plated in 96 well plates and allowed to recover overnight prior to addition of the inhibitor compound for 1 hour. After 1 hour, cell are fixed and blocked with 3% paraformaldehyde, 0.25% gluteraldehyde, 0.25% Triton X100 and 5% Marvel in TBS-T. Following this cells are incubated with primary antibody directed to the phosphorylated form of GSK3β (Cell Signaling) overnight at 4° C. After washing, cells are incubated with secondary antibody using the DELFIA reagents (Eu—N1 anti-rabbit IgG antibody) for 1 h, and following enhancement plates are read on a time-resolved fluorescence reader at excitation 340 nm and emission 640 nm. All cells are obtained from ECACC (European Collection of Cell Cultures).
1. U87MG cells plated at 12,500 cells/well in 160 ul media/well in a 96 well plate
2. Incubate for 24 hours at 37° C.
3. Treat cells with the inhibitor and DMSO control
4. Incubate for 1 hour at 37° C.
5. Media flicked from the plate and blot on paper
6. 100 μl fixing solution added to each well (3% paraformaldehyde, 0.25% gluteraldehyde, 0.25% Triton X100)
7. Incubate for 30 minutes at 37° C.
8. Wash 1× with water/0.1% Tween20
9. Block with 100 μl 5% milk/TBS-T
10. Incubate for 30 minutes at 37° C.
11. 100 μl primary antibody diluted in 5% milk/TBS-T added to each well (CST #9336 Phospho-Ser9 GSK3β antibody used at 1:250)
• include a column control with no 1 ab—just 5% milk/TBS-T • can also include a column of Zymed rabbit IgG (02-6102-5 mg/mL) control diluted in 5% milk/TBS-T to the same concentration as the phospho-Ser9 GSK3β if required 12. Incubate overnight at 4° C. 13. Wash 3× with water/0.1% Tween20 14. 100 μl secondary antibody diluted in Delfia Assay Buffer added to each well (Delfia Eu—N1 anti-rabbit IgG antibody used at 0.30 μg/ml final conc) 15. Incubate for 1 hour at 37° C. 16. Wash 3× with water/0.1% Tween20 17. 100 μl Delfia Enhancement Solution added to each well 18. Shake on plate shaker for 15 minutes 19. Read on Delfia programme (excitation 340 nm−emission […])=Europium counts 20. Wash 1× with water/0.1% Tween 20 21. 200 μl BCA solution added per well (BCA with 1:50 Copper II Sulfate) 22. Incubate for 30 minutes at 37° C. 23. Read at absorbance 562 nm=protein concentration

A further series has as its target T2, P70S6 kinase (T412E) (Homo sapiens, UniProt P23443, T412E).
T2 construct: purchased Upstate 14-486
Briefly: p70S6K radiometric assay. It is filed as biochemical. The conditions noted are these: approximately 15 μM ATP. How it is done:
P70S6 enzyme is bought from Upstate and used at 2 nM in the assay.
The substrate S6 cocktail ([…]) is used at […] (Km has not been determined). In the phosphoryl transfer reaction, the ^33P-γ phosphate from ATP is transferred to the serine residue. The reaction mixture is transferred to a phosphocellulose filter plate where the peptide binds and the unused ATP is washed away. After washing, scintillant is added and the incorporated activity measured by scintillation counting.
S6 kinase substrate cocktail from Upstate (#20-122)
Assay Buffer 10 mM MOPS pH 7.0
• 0.1 mg/ml BSA • 0.001% Brij-35 • 0.5% glycerol • 0.2 mM EDTA • 10 mM MgCl2 • 0.01% β-mercaptoethanol • Made as a 10× stock, stored at […] in 2 ml aliquots • 15 μM ATP
Compounds—prepare a dilution curve in DMSO in a polypropylene 96 well plate to 40× final assay concentration (final DMSO 2.5%).
• 5 μl compound • 10 μl substrate mix • 10 μl enzyme mix
Final ATP concentration is approximately 15 μM. KM for ATP calculated to 47 uM radiometrically. Controls are “no compound” (DMSO only) and “no enzyme” (use 10 μl of the enzyme mix prior to adding enzyme). Cover with a plate seal (TopSeal A—Packard) or plastic lid from filter plate (moderate radiation barrier). Mix by gentle shaking. Incubate at room temperature for 50 minutes. Stop the reaction by adding 20 μl of 2% orthophosphoric acid. […]

Another series has as its target hERG K+ ion channel (Homo sapiens, UniProt Q12809). In words: hERG activity.
For another series, the target named is T3, CYP450 1A2 (Homo sapiens, UniProt P05177).
T3 construct: purchased Invitrogen (Paisley, UK), Pan Vera Vivid screening kits; host or cells: baculosomes
T3 sequence (P05177 1-516): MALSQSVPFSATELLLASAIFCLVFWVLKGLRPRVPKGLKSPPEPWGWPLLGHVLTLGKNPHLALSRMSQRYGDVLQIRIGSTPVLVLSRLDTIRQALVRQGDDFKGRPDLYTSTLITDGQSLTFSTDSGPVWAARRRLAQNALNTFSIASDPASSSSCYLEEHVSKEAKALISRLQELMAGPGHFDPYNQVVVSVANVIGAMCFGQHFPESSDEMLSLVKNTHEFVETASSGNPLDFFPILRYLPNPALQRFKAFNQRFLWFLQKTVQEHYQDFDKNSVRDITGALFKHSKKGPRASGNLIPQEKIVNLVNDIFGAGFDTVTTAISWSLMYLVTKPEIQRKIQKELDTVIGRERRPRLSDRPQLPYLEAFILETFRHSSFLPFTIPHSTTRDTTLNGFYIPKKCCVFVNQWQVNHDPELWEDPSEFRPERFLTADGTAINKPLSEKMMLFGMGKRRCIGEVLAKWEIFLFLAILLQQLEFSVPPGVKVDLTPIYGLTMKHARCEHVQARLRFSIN
Briefly: Potency against cytochrome P450 1A2 (Vivid screening kit). It is filed as in vitro ADME. The following applies: tested at a concentration of 10 μM. The method, then:
(§1) The potency of the compound of Example 1 against cytochrome P450 (CYP450) enzymes 1A2, 2C9, 2C19, 3A4 and 2D6 was determined using the Pan Vera Vivid C450 screening kits available from Invitrogen (Paisley, UK). The CYP450s were supplied in the form of baculosomes containing the CYP450 and NADPH reductase and the substrates used were the fluorescent Vivid substrates. The final reaction mixtures were as follows:
100 mM potassium phosphate, pH 8, 1% acetonitrile, 2 μM 1A2 Blue vivid substrate, 100 μM NADP^+, 4 nM CYP450 1A2, 2.66 mM glucose-6-phosphate, 0.32 U/ml glucose-6-phosphate dehydrogenase.
(§2) Fluorescence was monitored for 20 minutes at 30 second intervals on a Fluoroskan fluorescence plate reader. The excitation and emission wavelengths were 390 nm and 460 nm for 1A2, 2C19 and 3A4, 390 nm and 485 nm for 2D6 and 485 nm and 530 nm for 2C9. Initial rates were determined from progress curves.
(§3) The test compound was made up in acetonitrile and tested against the CYP450s at a concentration of 10 μM.

Another series addresses ROCK-II (h) (Homo sapiens, UniProt O75116). In words: ROCK-II (h) assay. It is filed as biochemical. The conditions noted are these: below the limit of the assay. How it is done: In a final reaction volume of 25 μl ROCK-II (h) (5-10 mU) is incubated with 50 mM Tris pH 7.5, 0.1 mM EGTA, 30 μM […], 10 mM MgAcetate and [γ-^33P-ATP] (specific activity approx. 500 cpm/pmol, concentration as required). The reaction is initiated by the addition of the MgATP mix. After incubation for 40 minutes at room temperature, the reaction is stopped by the addition of 5 μl of a 3% phosphoric acid solution. 10 μl of the reaction is then spotted onto a P30 filtermat and washed three times for 5 minutes in 75 mM phosphoric acid and once in methanol prior to drying and scintillation counting.

In another series the target is T4, CYP450 2D6 (Homo sapiens, UniProt P10635).
T4 construct: purchased Invitrogen (Paisley, UK), Pan Vera Vivid screening kits; host or cells: baculosomes
Briefly: Potency against cytochrome P450 2D6 (Vivid screening kit). It is filed as in vitro ADME. The following applies: tested at a concentration of 10 μM. The method, then: as §1
100 mM potassium phosphate, pH 8, 1% acetonitrile, 5 μM 2D6 Blue vivid substrate, 100 μM NADP^+, 16 nM CYP450 2D6, 2.66 mM glucose-6-phosphate, 0.32 U/ml glucose-6-phosphate dehydrogenase.
as §2, §3

Another series deals with T5, CYP450 2C19 (Homo sapiens, UniProt P33261).
T5 construct: purchased Invitrogen (Paisley, UK), Pan Vera Vivid screening kits; host or cells: baculosomes
Briefly: Potency against cytochrome P450 2C19 (Vivid screening kit). It is filed as in vitro ADME. The conditions noted are these: tested at a concentration of 10 μM. The method, then:
as §1
50 mM potassium phosphate, pH 8, 1% acetonitrile, 8 μM Blue vivid substrate, 100 μM NADP^+, 4 nM CYP450 2C19, 2.66 mM glucose-6-phosphate, 0.32 U/ml glucose-6-phosphate dehydrogenase.
as §2, §3

The next series deals with T6, CYP450 2C9 (Homo sapiens, UniProt P11712).
T6 construct: purchased Invitrogen (Paisley, UK), Pan Vera Vivid screening kits; host or cells: baculosomes
Briefly: Potency against cytochrome P450 2C9 (Vivid screening kit). It is filed as in vitro ADME. The conditions noted are these: tested at a concentration of 10 μM. How it is done: as §1
50 mM potassium phosphate, pH 8, 1% acetonitrile, 2 μM Green vivid substrate, 100 μM NADP^+, 8 nM CYP450 2C9, 2.66 mM glucose-6-phosphate, 0.32 U/ml glucose-6-phosphate dehydrogenase.
as §2, §3

In the next series the target is PKB (Homo sapiens, UniProt P31751). In words: Activity against the kinase PKB (method not given). The conditions noted are these: compound and its acid addition salts.
Series [2] deals with T7, protein kinase B (PKB), fusion protein PKB-PIF (Homo sapiens, UniProt P31751).
T7 construct: made in house
In words: PKB kinase inhibitory activity, in vitro radiometric assay. It is filed as biochemical. The conditions noted are these: (radiometric) binding assay, relative to the other enantiomer. From the text: The inhibition of protein kinase B (PKB) activity by compounds can be determined essentially as described by Andjelkovic et al. (Mol. Cell. Biol. 19, 5061-5072 (1999)) but using a fusion protein described as PKB-PIF and described in full by Yang et al (Nature Structural Biology 9, 940-944 (2002)). The protein is purified and activated with PDK1 as described by Yang et al. The peptide AKTide-2T (H-A-R—K—R-E-R-T-Y—S—F-G-H—H-A-OH) obtained from Calbiochem (#123900) is used as a substrate. A final concentration of 0.6 nM enzyme is used in a buffer that includes 20 mM MOPS pH 7.2, 30 μM ATP/γ^33P-ATP and 25 μM substrate. Compounds are added in DMSO solution to a final DMSO concentration of 2.5%. The reaction is allowed to proceed for 20 minutes before addition of excess orthophosphoric acid to quench activity. The reaction mixture is transferred to a phosphocellulose filter plate where the peptide binds and the unused ATP is washed away. After washing, scintillant is added and the incorporated activity measured by scintillation counting.

Another series concerns ROCK. The conditions noted are these: cited from earlier work.

pIC50: −log10 of the molar value.

T7 sequence (P31751 with tags, fused parts or gaps limits assumed): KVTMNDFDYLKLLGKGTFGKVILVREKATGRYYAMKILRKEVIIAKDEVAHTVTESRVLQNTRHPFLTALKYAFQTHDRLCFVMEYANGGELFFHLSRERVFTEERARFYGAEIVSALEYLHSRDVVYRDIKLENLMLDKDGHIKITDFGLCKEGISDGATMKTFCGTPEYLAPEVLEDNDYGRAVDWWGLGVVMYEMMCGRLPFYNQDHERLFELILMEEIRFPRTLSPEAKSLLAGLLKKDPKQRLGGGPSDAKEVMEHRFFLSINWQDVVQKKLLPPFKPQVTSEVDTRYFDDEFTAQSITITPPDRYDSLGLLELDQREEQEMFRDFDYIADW
Sequence of PKB (P31751 whole entry, the tested form may be a part): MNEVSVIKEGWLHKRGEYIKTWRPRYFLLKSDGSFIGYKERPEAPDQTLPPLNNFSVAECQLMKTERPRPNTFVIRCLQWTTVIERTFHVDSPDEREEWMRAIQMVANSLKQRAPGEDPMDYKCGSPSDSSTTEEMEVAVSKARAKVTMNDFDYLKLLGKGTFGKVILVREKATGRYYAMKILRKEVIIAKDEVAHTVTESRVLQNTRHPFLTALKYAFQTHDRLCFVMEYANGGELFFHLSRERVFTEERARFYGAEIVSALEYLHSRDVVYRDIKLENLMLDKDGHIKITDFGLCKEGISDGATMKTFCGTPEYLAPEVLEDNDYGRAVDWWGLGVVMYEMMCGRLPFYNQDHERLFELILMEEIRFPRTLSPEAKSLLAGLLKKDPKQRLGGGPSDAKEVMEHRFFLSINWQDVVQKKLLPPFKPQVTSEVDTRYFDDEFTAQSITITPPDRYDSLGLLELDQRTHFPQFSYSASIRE
Sequence of hERG K+ ion channel (Q12809 whole entry): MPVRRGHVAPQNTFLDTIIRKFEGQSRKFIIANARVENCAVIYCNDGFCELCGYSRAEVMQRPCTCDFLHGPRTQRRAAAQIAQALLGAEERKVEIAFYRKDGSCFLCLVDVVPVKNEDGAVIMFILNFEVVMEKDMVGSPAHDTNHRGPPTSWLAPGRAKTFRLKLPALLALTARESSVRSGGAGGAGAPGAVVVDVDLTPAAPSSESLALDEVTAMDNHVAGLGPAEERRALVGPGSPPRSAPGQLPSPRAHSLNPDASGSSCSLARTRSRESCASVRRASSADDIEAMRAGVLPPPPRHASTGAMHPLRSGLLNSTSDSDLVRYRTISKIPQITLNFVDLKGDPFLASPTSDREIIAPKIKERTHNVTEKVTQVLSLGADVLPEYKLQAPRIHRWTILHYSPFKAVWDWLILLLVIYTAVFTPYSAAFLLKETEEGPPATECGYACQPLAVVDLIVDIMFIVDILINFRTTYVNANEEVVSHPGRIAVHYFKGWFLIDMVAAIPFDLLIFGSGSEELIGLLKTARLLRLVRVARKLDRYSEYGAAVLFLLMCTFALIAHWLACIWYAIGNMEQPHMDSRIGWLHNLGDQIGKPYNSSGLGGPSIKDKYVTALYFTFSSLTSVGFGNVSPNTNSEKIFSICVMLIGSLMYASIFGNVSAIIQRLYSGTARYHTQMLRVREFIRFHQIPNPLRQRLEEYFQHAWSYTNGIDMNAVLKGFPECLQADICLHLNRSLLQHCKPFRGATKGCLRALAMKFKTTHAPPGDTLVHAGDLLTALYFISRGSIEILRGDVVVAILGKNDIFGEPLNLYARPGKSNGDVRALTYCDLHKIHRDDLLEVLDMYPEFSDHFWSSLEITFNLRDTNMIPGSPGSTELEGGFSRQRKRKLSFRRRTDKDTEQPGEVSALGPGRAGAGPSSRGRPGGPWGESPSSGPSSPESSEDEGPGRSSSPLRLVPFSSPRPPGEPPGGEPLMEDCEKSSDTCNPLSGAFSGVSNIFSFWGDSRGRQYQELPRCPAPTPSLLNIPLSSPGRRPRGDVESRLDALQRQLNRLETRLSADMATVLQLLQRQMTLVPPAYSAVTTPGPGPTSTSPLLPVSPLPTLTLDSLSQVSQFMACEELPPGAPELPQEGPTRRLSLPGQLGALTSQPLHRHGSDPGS
T6 sequence (P11712 whole entry): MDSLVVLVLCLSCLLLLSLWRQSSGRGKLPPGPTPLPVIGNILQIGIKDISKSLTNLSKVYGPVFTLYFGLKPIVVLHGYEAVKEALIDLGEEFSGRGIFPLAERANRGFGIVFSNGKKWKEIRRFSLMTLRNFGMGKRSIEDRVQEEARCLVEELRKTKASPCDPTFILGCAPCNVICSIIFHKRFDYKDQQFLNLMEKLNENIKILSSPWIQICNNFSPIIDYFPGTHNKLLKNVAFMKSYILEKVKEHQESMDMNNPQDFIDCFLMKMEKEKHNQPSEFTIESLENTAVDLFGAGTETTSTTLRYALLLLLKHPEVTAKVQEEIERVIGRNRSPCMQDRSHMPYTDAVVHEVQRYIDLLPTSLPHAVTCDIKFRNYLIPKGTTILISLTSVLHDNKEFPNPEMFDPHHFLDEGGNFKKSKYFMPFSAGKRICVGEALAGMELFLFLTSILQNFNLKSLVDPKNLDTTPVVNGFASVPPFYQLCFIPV
T4 sequence (P10635 whole entry): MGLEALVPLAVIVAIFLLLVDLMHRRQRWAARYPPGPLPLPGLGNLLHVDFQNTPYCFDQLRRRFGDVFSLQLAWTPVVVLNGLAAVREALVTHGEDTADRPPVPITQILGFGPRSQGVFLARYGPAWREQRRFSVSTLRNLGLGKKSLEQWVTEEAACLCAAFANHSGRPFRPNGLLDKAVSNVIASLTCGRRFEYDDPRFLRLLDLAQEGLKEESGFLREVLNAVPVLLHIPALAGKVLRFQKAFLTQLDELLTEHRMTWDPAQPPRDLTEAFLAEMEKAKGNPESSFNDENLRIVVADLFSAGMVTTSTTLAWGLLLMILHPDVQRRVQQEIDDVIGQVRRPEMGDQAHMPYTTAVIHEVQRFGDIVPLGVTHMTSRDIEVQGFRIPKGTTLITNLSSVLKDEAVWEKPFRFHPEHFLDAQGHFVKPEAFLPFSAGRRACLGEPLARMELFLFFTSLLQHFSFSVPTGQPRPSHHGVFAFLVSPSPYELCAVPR
T2 sequence (P23443 1-421 T412E limits assumed): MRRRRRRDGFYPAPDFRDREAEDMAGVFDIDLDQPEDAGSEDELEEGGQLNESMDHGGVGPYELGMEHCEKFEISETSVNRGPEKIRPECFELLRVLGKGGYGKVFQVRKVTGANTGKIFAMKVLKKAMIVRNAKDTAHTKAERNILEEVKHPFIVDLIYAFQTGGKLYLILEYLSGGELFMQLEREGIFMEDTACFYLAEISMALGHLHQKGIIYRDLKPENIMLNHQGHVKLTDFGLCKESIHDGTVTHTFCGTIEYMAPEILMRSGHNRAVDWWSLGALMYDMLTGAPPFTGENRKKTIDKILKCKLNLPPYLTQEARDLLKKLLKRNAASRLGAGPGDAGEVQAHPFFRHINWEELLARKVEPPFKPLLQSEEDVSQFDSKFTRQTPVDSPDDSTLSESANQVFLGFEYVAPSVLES
T5 sequence (P33261 whole entry): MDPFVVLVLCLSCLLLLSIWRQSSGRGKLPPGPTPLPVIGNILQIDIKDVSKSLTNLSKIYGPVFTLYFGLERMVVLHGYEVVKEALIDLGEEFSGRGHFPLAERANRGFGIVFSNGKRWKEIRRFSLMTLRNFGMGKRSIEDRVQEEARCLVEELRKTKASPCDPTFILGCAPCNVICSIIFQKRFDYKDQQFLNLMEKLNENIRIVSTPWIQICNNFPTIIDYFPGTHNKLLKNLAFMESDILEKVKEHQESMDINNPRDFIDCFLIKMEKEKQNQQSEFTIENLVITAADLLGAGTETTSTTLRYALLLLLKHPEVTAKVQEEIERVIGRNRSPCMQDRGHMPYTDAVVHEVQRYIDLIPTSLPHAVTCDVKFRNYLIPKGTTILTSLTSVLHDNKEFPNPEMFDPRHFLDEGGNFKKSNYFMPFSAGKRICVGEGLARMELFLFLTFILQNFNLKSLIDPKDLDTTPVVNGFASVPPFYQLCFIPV

For `NC[C@](O)(c1ccc(Cl)cc1)c1ccc(-c2cn[nH]c2)cc1` [R-enantiomer, (R)-2-amino-1-(4-chloro-phenyl)-1-[4-(1H-pyrazol-4-yl)-phenyl]-ethanol], the pIC50 was 6.60 on PKA catalytic domain (isolated enzyme, read-out: IC50 against PKA) and below 4.30 in series [1] (Homo sapiens, U-87 MG, U87MG cells, 1 hour with inhibitor). In addition, in [1], the “activity in mechanistic cellular ELISA assay” value is “no measurable activity”.

On to `NC[C@@](O)(c1ccc(Cl)cc1)c1ccc(-c2cn[nH]c2)cc1` [compound of formula (I), (S)-2-amino-1-(4-chloro-phenyl)-1-[4-(1H-pyrazol-4-yl)-phenyl]-ethanol], for which the pIC50 at P70S6 kinase (T412E) was 7.92; on CYP450 1A2, below 5.00; on ROCK-II (h), above 8.00; on CYP450 2D6, below 5.00; at CYP450 2C19, below 5.00; against CYP450 2C9 it was below 5.00. The “hERG ion channel blocking activity” value on hERG K+ ion channel is reported as “negligible”. This molecule also registered an inhibition at 0.03 µM against PKA catalytic domain (at a concentration of 0.03 μM) of 44%. In [1], the “activity in mechanistic cellular ELISA assay” value is listed as “good activity”.

As for `NCC(O)(c1ccc(Cl)cc1)c1ccc(I)cc1` (racemic) [compound of the formula (12), 2-amino-1-(4-chloro-phenyl)-1-[4-iodo-phenyl]-ethanol], on PKB, the “activity against the kinase PKB” value was “have activity against the kinase PKB”.

Consider `NC[C@H](c1ccc(Cl)cc1)c1ccc(-c2cn[nH]c2)cc1` (single isomer, unassigned) [Isomer D], for which the “activity in mechanistic cellular ELISA assay” value in [1] was “essentially equipotent”.

As to `NC[C@@H](c1ccc(Cl)cc1)c1ccc(-c2cn[nH]c2)cc1` (single isomer, unassigned) [Isomer C], the “fold more active against PKB than its antipode” value in series [2] is given as “about 10 fold”. Besides, the “activity in mechanistic cellular ELISA assay” value in [1] was “essentially equipotent”.

`CNC[C@@H](c1ccc(Cl)cc1)c1ccc(-c2cn[nH]c2)cc1` (single isomer, unassigned) [Isomer A]: in series [2], the “fold more active against PKB than its antipode” value stood at 10 fold.

On to `C[C@@H](N)[C@H]1CC[C@H](C(=O)Nc2ccncc2)CC1` [Example Y-27632], for which the “effective doses for the use of this compound” value with ROCK was “approximately 30 uM”.
